The source of these data is patent US6797721B2, “Phorboxazole derivatives for treating cancer” (Parker Hughes Institute, priority 1999, dated 2004).

Holding throughout (type): cell-based
Experiment [1] has as its system BT-20 human breast cancer cells. In words: Clonogenic assay, BT-20. The conditions noted are these: 7 days. As for the experimental part:
The growth-inhibiting activity of the synthetic Phorboxazole A and the synthesized derivatives was tested in clonogenic assays. Cancer cells were treated with 1 nM, 10 nM, and 100 nM doses of synthetic Phorboxazole A or derivatives of phorboxazole A. Treated cells included U373 human glioblastoma cells, NALM-6, human B-lineage acute lymphoblastic leukemia cells, and BT-20 human breast cancer cells. The cancer cells were resuspended in clonogenic medium consisting of alpha-MEM supplemented with 0.9% methylcellulose, 30% fetal bovine serum, and 50 μM 2-mercaptoethanol. Cells were plated in duplicate Petri dishes at 100,000 cells/mL/dish and cultured in a humidified 5% CO2 incubator for 7 days. Cancer cell colonies were enumerated on a grid using an inverted phase microscope of high optical resolution. Results were expressed as % inhibition of clonogenic cells at a particular concentration of the test agent using the formula:
% Inhibition=(1−Mean # of colonies [Test]/Mean # of colonies [Control]×100.

Experiment [2] concerns U266BL (multiple myeloma). In words: MTT cytotoxicity assay, U266BL. The conditions noted are these: Homo sapiens. As for the experimental part:
(§1) The cytotoxicity assay of synthetic Phorboxazole A and various derivative compounds against human tumor cells was performed using the MTT (3-[4,5-dimethylthiazol-2-yl]-2,5-diphenyl tetrazolium bromide) assay (Boehringer Mannheim Corp., Indianapolis, Ind.). Briefly, exponentially growing brain tumor cells were seeded into a 96-well plate at a density of 2.5×10^4 cells/well and incubated for 36 hours at 37° C. prior to drug exposure. On the day of treatment, culture medium was carefully aspirated from the wells and replaced with fresh medium containing the various phorboxazole A derivative compounds as well as the tyrosine kinase inhibitory isoflavone genistein (GEN) at concentrations ranging from 0.1 to 250 μM. Triplicate wells were used for each treatment.
The cells were incubated with the various compounds for 24-36 hours at 37° C. in a humidified 5% CO2 atmosphere. To each well, 10 μl of MTT (0.5 mg/ml final concentration) was added and the plates were incubated at 37° C. for 4 hours to allow MTT to form formazan crystals by reacting with metabolically active cells. […] The absorbance of each well was measured in a microplate reader (Labsystems) at 540 nm and a reference wavelength of 690 nm. […] The percent survival was calculated using the formula: [formula]
The IC50 values were calculated by non-linear regression analysis. […]

Experiment [3] concerns HS-SULTAN (multiple myeloma). Briefly: MTT cytotoxicity assay, HS-SULTAN. The following applies: Homo sapiens.
The test system of experiment [4] is U373 human glioblastoma cells. In words: MTT cytotoxicity assay, U373. The following applies: U373 MG, U373 (brain tumor, glioblastoma), 24-36 hours, read-out: IC50 [MTT]. The protocol: as §1
(§2) Human glioblastoma cells U373 (brain cancer), human B-lineage acute lymphoblastic leukemia cells NALM-6, and human breast cancer cells BT-20 were obtained from American Type Culture Collection (Rockville, Md.) and maintained as a continuous cell line in Dulbecco's modified Eagles's medium supplemented with 10% fetal bovine serum and antibiotics.
(§3) The cells were incubated with the various compounds for 24-36 hours at 37° C. in a humidified 5% CO2 atmosphere. To each well, 10 μl of MTT (0.5 mg/ml final concentration) was added and the plates were incubated at 37° C. for 4 hours to allow MTT to form formazan crystals by reacting with metabolically active cells. The fonnazan crystals were solubilized overnight at 37° C. in a solution containing 10% SDS in 0.01 M HCl. The absorbance of each well was measured in a microplate reader (Labsystems) at 540 nm and a reference wavelength of 690 nm. To translate the OD540 values into the number of live cells in each well, the OD540 values were compared to those on standard OD540-versus-cell number curves generated for each cell line. The percent survival was calculated using the formula: [formula]
(§4) The IC50 values were calculated by non-linear regression analysis.

In experiment [5] the test system is BT-20 human breast cancer cells. Briefly: MTT cytotoxicity assay, BT-20. The following applies: BT-20 (breast cancer), 24-36 hours, read-out: IC50 [MTT]. The protocol: as §1, §2, §3, §4
The subject of experiment [6] is NALM-6 human B-lineage acute lymphoblastic leukemia cells. Briefly: MTT cytotoxicity assay, NALM-6. The conditions noted are these: NALM-6 (leukemia, ALL), 24-36 hours, read-out: IC50 [MTT]. As for the experimental part: as §1, §2, §3, §4

Each structure is given as a SMILES string.

For `C=C1C[C@@H]2C[C@@H]3C[C@@H](O)C[C@@H](O3)c3coc(n3)/C=C/C[C@H]3O[C@@H](/C(C)=C/c4coc(C[C@]5(O)C[C@H](OC)C[C@H]([C@H](O)/C=C(C)/C=C/[C@@H](C/C=C/Br)OC)O5)n4)[C@H](C)[C@@H](OC(=O)/C=C\C[C@@H](C1)O2)[C@H]3C` [Compound 1, Phorboxazole A], the “Mean Number Colonies/10^4 cells” value in experiment [1] (1 nM) was determined as 1070; in experiment [1] (10 nM), 0; in experiment [1] (100 nM), 0. Moreover, the inhibition at 0.001 µM in experiment [1] (Homo sapiens, 168 h, 1 nM, read-out: Inhibition of clonogenic growth) is 29.8%. For the same compound, the inhibition at 0.01 µM in experiment [1] (Homo sapiens, 168 h, 10 nM, read-out: Inhibition of clonogenic growth) was > 99.9%. The inhibition at 0.1 µM in experiment [1] (Homo sapiens, 168 h, 100 nM, read-out: Inhibition of clonogenic growth) was > 99.9%. Moreover, the IC50 was 14.9 nM in experiment [2]; 29.8 nM in experiment [3]; 6.7 nM in experiment [4]; 3.4 nM in experiment [5]; 1.7 nM in experiment [6].
